For series [1], the system named is Leishmania mexicana. The series is described as follows: Antileishmanial activity against Leishmania mexicana MNYC/BZ/62/M379 promastigotes assessed as parasite viability measured after 1 hr by alamarBlue staining based fluorescence analysis. To be noted: MNYC/BZ/62/M379, 1 h, read-out: ED50 (the source's name). The format is functional.
The test system of series [2] is Leishmania mexicana. The series is described as follows: Antileishmanial activity against axenic amastigote form of Leishmania mexicana MNYC/BZ/62/M379 assessed as parasite viability measured after 1 hr by alamarBlue staining based fluorescence analysis. The format is functional. The following applies: MNYC/BZ/62/M379, 1 h, read-out: ED50 (the source's name).
Series [3] relates to Leishmania mexicana. The series can be described thus: Antileishmanial activity against Leishmania mexicana MNYC/BZ/62/M379 amastigotes infected in mouse RAW264.7 cells assessed as parasite viability measured after 24 hrs by alamarBlue staining based fluorescence analysis. The format is functional.
Series [4] can be described thus: Cytotoxicity against mouse RAW264.7 cells measured after 24 hrs by alamarBlue staining based fluorescence analysis. The format is cell-based. The following applies: read-out: ED50.

pEC50: −log10 of the molar value. Non-standard residues stand in square brackets, D forms with d. Residues, ends and D or L forms follow the SMILES beside them. Gly(N-2-aminoethyl) = NCCNCC(=O)O; N(isopentyl)Gly = CC(C)CCNCC(=O)O; Nspe = C[C@H](NCC(=O)O)c1ccccc1; Nphe = O=C(O)CNCc1ccccc1; Nleu = CC(C)CNCC(=O)O; NPrGly = CCCNCC(=O)O; Nlys = NCCCCNCC(=O)O

On to `NCCNCC(=O)N(CC(=O)N(CC(=O)N(CCN)CC(=O)N(CC(=O)N(CC(=O)N(CCN)CC(=O)N(CC(=O)N(CC(=O)N(CCN)CC(=O)N(CC(=O)N(CC(N)=O)Cc1ccccc1)Cc1ccccc1)Cc1ccccc1)Cc1ccccc1)Cc1ccccc1)Cc1ccccc1)Cc1ccccc1)Cc1ccccc1` (H-[Gly(N-2-aminoethyl)][Nphe][Nphe][Gly(N-2-aminoethyl)][Nphe][Nphe][Gly(N-2-aminoethyl)][Nphe][Nphe][Gly(N-2-aminoethyl)][Nphe][Nphe]-NH2), for which the values for the pEC50 in the series with Leishmania mexicana [1] and in the series on Leishmania mexicana [2] were 4.68 and under 4.00, respectively. Also, the ED50 in the series with Leishmania mexicana [3] is over 5 µM. The CC50 at 24 h in series [4] was over 5 µM.

`CC(C)CCN(CC(=O)N(CC(N)=O)[C@@H](C)c1ccccc1)C(=O)CN(CCCCN)C(=O)CN(C(=O)CN(CCC(C)C)C(=O)CNCCCCN)[C@@H](C)c1ccccc1` (H-[Nlys][N(isopentyl)Gly][Nspe][Nlys][N(isopentyl)Gly][Nspe]-NH2): the pEC50 in the series on Leishmania mexicana [1] and with Leishmania mexicana [2] was under 4.00 each time.

Turning to `CCCN(CC(=O)N(CC(N)=O)[C@@H](C)c1ccccc1)C(=O)CN(CCCCN)C(=O)CN(C(=O)CN(CCC)C(=O)CNCCCCN)[C@@H](C)c1ccccc1` (H-[Nlys][NPrGly][Nspe][Nlys][NPrGly][Nspe]-NH2), the pEC50 in the series on Leishmania mexicana [1] and in the series on Leishmania mexicana [2] was under 4.00 throughout.

For the compound `CCCN(CC(=O)N(CC(N)=O)[C@@H](C)c1ccccc1)C(=O)CN(CCCCN)C(=O)CN(C(=O)CN(CCC)C(=O)CN(CCCCN)C(=O)CN(C(=O)CN(CCC)C(=O)CNCCCCN)[C@@H](C)c1ccccc1)[C@@H](C)c1ccccc1` (H-[Nlys][NPrGly][Nspe][Nlys][NPrGly][Nspe][Nlys][NPrGly][Nspe]-NH2), the pEC50 in the series with Leishmania mexicana [1] and in the series with Leishmania mexicana [2] was under 4.00 in each case.

For the compound `CCCN(CC(=O)N(CC(N)=O)[C@@H](C)c1ccccc1)C(=O)CN(CCCCN)C(=O)CN(C(=O)CN(CCC)C(=O)CN(CCCCN)C(=O)CN(C(=O)CN(CCC)C(=O)CN(CCCCN)C(=O)CN(C(=O)CN(CCC)C(=O)CNCCCCN)[C@@H](C)c1ccccc1)[C@@H](C)c1ccccc1)[C@@H](C)c1ccccc1` (H-[Nlys][NPrGly][Nspe][Nlys][NPrGly][Nspe][Nlys][NPrGly][Nspe][Nlys][NPrGly][Nspe]-NH2), the pEC50 with Leishmania mexicana [1] and in the series on Leishmania mexicana [2] was under 4.00 each time.

Take `CC(C)CN(CC(=O)N(CC(N)=O)[C@@H](C)c1ccccc1)C(=O)CN(CCCCN)C(=O)CN(C(=O)CN(CC(C)C)C(=O)CNCCCCN)[C@@H](C)c1ccccc1` (H-[Nlys][Nleu][Nspe][Nlys][Nleu][Nspe]-NH2): the pEC50 in the series with Leishmania mexicana [1] and in the series with Leishmania mexicana [2] was under 4.00 each time.

As to `CC(C)CN(CC(=O)N(CC(N)=O)[C@@H](C)c1ccccc1)C(=O)CN(CCCCN)C(=O)CN(C(=O)CN(CC(C)C)C(=O)CN(CCCCN)C(=O)CN(C(=O)CN(CC(C)C)C(=O)CNCCCCN)[C@@H](C)c1ccccc1)[C@@H](C)c1ccccc1` (H-[Nlys][Nleu][Nspe][Nlys][Nleu][Nspe][Nlys][Nleu][Nspe]-NH2), the pEC50 in the series with Leishmania mexicana [1] and in the series on Leishmania mexicana [2] was under 4.00 throughout.

Take `CC(C)CN(CC(=O)N(CC(N)=O)[C@@H](C)c1ccccc1)C(=O)CN(CCCCN)C(=O)CN(C(=O)CN(CC(C)C)C(=O)CN(CCCCN)C(=O)CN(C(=O)CN(CC(C)C)C(=O)CN(CCCCN)C(=O)CN(C(=O)CN(CC(C)C)C(=O)CNCCCCN)[C@@H](C)c1ccccc1)[C@@H](C)c1ccccc1)[C@@H](C)c1ccccc1` (H-[Nlys][Nleu][Nspe][Nlys][Nleu][Nspe][Nlys][Nleu][Nspe][Nlys][Nleu][Nspe]-NH2): the pEC50 with Leishmania mexicana [1] and in the series with Leishmania mexicana [2] was under 4.00 each time.

In the case of `NCCCCNCC(=O)N(CC(=O)N(CC(=O)N(CCCCN)CC(=O)N(CC(=O)N(CC(N)=O)Cc1ccccc1)Cc1ccccc1)Cc1ccccc1)Cc1ccccc1` (H-[Nlys][Nphe][Nphe][Nlys][Nphe][Nphe]-NH2), the pEC50 with Leishmania mexicana [1] and in the series on Leishmania mexicana [2] was under 4.00 in each case.

For the compound `NCCCCNCC(=O)N(CC(=O)N(CC(=O)N(CCCCN)CC(=O)N(CC(=O)N(CC(=O)N(CCCCN)CC(=O)N(CC(=O)N(CC(=O)N(CCCCN)CC(=O)N(CC(=O)N(CC(N)=O)Cc1ccccc1)Cc1ccccc1)Cc1ccccc1)Cc1ccccc1)Cc1ccccc1)Cc1ccccc1)Cc1ccccc1)Cc1ccccc1` (H-[Nlys][Nphe][Nphe][Nlys][Nphe][Nphe][Nlys][Nphe][Nphe][Nlys][Nphe][Nphe]-NH2), the pEC50 with Leishmania mexicana [1] was 4.82; with Leishmania mexicana [2], under 4.00.

Take `C[C@@H](c1ccccc1)N(CC(N)=O)C(=O)CN(C(=O)CN(CCCCN)C(=O)CN(C(=O)CN(C(=O)CNCCCCN)[C@@H](C)c1ccccc1)[C@@H](C)c1ccccc1)[C@@H](C)c1ccccc1` (H-[Nlys][Nspe][Nspe][Nlys][Nspe][Nspe]-NH2): the pEC50 in the series on Leishmania mexicana [1] and with Leishmania mexicana [2] was under 4.00 throughout.

In the case of `C[C@@H](c1ccccc1)N(CC(N)=O)C(=O)CN(C(=O)CN(CCCCN)C(=O)CN(C(=O)CN(C(=O)CN(CCCCN)C(=O)CN(C(=O)CN(C(=O)CN(CCCCN)C(=O)CN(C(=O)CN(C(=O)CNCCCCN)[C@@H](C)c1ccccc1)[C@@H](C)c1ccccc1)[C@@H](C)c1ccccc1)[C@@H](C)c1ccccc1)[C@@H](C)c1ccccc1)[C@@H](C)c1ccccc1)[C@@H](C)c1ccccc1` (H-[Nlys][Nspe][Nspe][Nlys][Nspe][Nspe][Nlys][Nspe][Nspe][Nlys][Nspe][Nspe]-NH2), the pEC50 was 5.10 with Leishmania mexicana [1] and under 4.00 in the series with Leishmania mexicana [2].

Take `CC(c1ccccc1)N(CC(=O)N(CCCCN)CC(=O)N(CC(=O)N(CC(=O)N(CCCCN)CC(=O)N(CC(=O)N(CC(N)=O)[C@@H](C)c1ccccc1)Cc1ccc(F)cc1)C(C)c1ccccc1)Cc1ccc(F)cc1)C(=O)CN(Cc1ccc(F)cc1)C(=O)CNCCCCN` (single isomer, unassigned): the pEC50 with Leishmania mexicana [1] was 4.89; with Leishmania mexicana [2], under 4.00.

Take `CC(C)CCN(CC(=O)N(CC(=O)N(CCCCN)CC(=O)N(CCC(C)C)CC(=O)N(CC(=O)N(CCCCN)CC(=O)N(CCC(C)C)CC(=O)N(CC(=O)N(CCCCN)CC(=O)N(CCC(C)C)CC(=O)N(CC(N)=O)[C@@H](C)c1ccccc1)C(C)c1ccccc1)C(C)c1ccccc1)C(C)c1ccccc1)C(=O)CNCCCCN` (single isomer, unassigned): the pEC50 in the series with Leishmania mexicana [1] was 4.92; with Leishmania mexicana [2], under 4.00.

`CC(C)CCN(CC(=O)N(CC(N)=O)C(C)c1ccccc1)C(=O)CN(CCCCN)C(=O)CN(C(=O)CN(CCC(C)C)C(=O)CN(CCCCN)C(=O)CN(C(=O)CN(CCC(C)C)C(=O)CNCCCCN)[C@@H](C)c1ccccc1)[C@@H](C)c1ccccc1` (single isomer, unassigned): the pEC50 was 4.28 with Leishmania mexicana [1] and under 4.00 with Leishmania mexicana [2].

`CCCCCN(CC(=O)N(CC(=O)N(CC(=O)N(CCCCN)CC(=O)N(CC(=O)N(CC(N)=O)[C@@H](C)c1ccccc1)[C@@H](C)c1ccccc1)C(C)c1ccccc1)[C@@H](C)c1ccccc1)C(=O)CN(C(=O)CN(C(=O)CN(CCCCN)C(=O)CN(C(=O)CN(C(=O)CNCCCCN)[C@@H](C)c1ccccc1)C(C)c1ccccc1)[C@@H](C)c1ccccc1)C(C)c1ccccc1` (single isomer, unassigned): the values for the pEC50 in the series with Leishmania mexicana [1] and in the series with Leishmania mexicana [2] were 5.00 and 4.82, respectively.

Take `CC(c1ccccc1)N(CC(=O)N(CCCCN)CC(=O)N(CC(=O)N(CC(=O)N(CCCCN)CC(=O)N(CC(=O)N(CC(=O)N(CCCCN)CC(=O)N(CC(=O)N(CC(N)=O)[C@@H](C)c1ccccc1)Cc1ccc(F)cc1)C(C)c1ccccc1)Cc1ccc(F)cc1)C(C)c1ccccc1)Cc1ccc(F)cc1)C(=O)CN(Cc1ccc(F)cc1)C(=O)CNCCCCN` (single isomer, unassigned): the pEC50 with Leishmania mexicana [1] is 5.10; in the series with Leishmania mexicana [2] it was 4.57.

As to `CCCCCNCC(=O)N(CC(=O)N(CC(=O)N(CCCCN)CC(=O)N(CC(=O)N(CC(=O)N(CCCCC)CC(=O)N(CC(=O)N(CC(=O)N(CCCCN)CC(=O)N(CC(=O)N(CC(N)=O)[C@@H](C)c1ccccc1)[C@@H](C)c1ccccc1)C(C)c1ccccc1)[C@@H](C)c1ccccc1)C(C)c1ccccc1)[C@@H](C)c1ccccc1)C(C)c1ccccc1)[C@@H](C)c1ccccc1` (single isomer, unassigned), the pEC50 with Leishmania mexicana [1] is 5.00; in the series with Leishmania mexicana [2], 4.77.

Take `CC(c1ccccc1)N(CC(=O)N(CCN)CC(=O)N(CC(=O)N(CC(=O)N(CCN)CC(=O)N(CC(=O)N(CC(N)=O)[C@@H](C)c1ccccc1)[C@@H](C)c1ccccc1)C(C)c1ccccc1)[C@@H](C)c1ccccc1)C(=O)CN(C(=O)CNCCN)C(C)c1ccccc1` (single isomer, unassigned): the pEC50 is 5.00 in the series on Leishmania mexicana [1] and under 4.00 in the series with Leishmania mexicana [2].

`CC(c1ccccc1)N(CC(=O)N(CCCCN)CC(=O)N(CC(=O)N(CC(=O)N(CCCCN)CC(=O)N(CC(=O)N(CC(N)=O)[C@@H](C)c1ccccc1)[C@@H](C)c1ccccc1)Cc1ccc(F)cc1)Cc1ccc(F)cc1)C(=O)CN(C(=O)CNCCCCN)[C@@H](C)c1ccccc1` (single isomer, unassigned): the pEC50 with Leishmania mexicana [1] was 4.89; in the series on Leishmania mexicana [2], under 4.00.

As for `CCCCCNCC(=O)N(CC(=O)N(CC(=O)N(CCCCN)CC(=O)N(CC(=O)N(CC(=O)N(CCCCN)CC(=O)N(CC(=O)N(CC(=O)N(CCCCN)CC(=O)N(CC(=O)N(CC(N)=O)[C@@H](C)c1ccccc1)[C@@H](C)c1ccccc1)C(C)c1ccccc1)[C@@H](C)c1ccccc1)[C@@H](C)c1ccccc1)[C@@H](C)c1ccccc1)C(C)c1ccccc1)[C@@H](C)c1ccccc1` (single isomer, unassigned), the pEC50 with Leishmania mexicana [1] was 5.10; in the series with Leishmania mexicana [2], 4.68.

Turning to `C[C@H](c1ccccc1)N(CC(N)=O)C(=O)CN(C(=O)CN(CCCCN)C(=O)CN(C(=O)CN(C(=O)CN(CCCCN)C(=O)CN(C(=O)CN(C(=O)CNCCCCN)[C@H](C)c1ccccc1)[C@@H](C)c1ccccc1)[C@H](C)c1ccccc1)[C@@H](C)c1ccccc1)[C@H](C)c1ccccc1` (stereo in doubt), the pEC50 in the series on Leishmania mexicana [1] was 4.82; in the series on Leishmania mexicana [2], under 4.00.
